Usually IC50 stands for the concentration at which inhibition is half-maximal.

The source of these data is patent US10065954B2, “Substituted imidazo[4,5-c]pyridines as SSAO inhibitors” (Proximagen Limited, priority 2014, dated 2018).

Assay [1] addresses T1, human ether a go-go related gene (hERG) K+ channel (Homo sapiens, UniProt Q12809).
T1 construct: Chinese Hamster Lung cell line stably expressing the full length hERG channel; expressed in transfected cells; host or cells: Chinese Hamster Lung cell line
The experiment in a line: hERG assay, IonWorks patch clamp electrophysiology. Type of assay: cell-based. As to conditions: Chinese Hamster Lung cell line stably expressing hERG; max assay concentration 11 uM. The procedure: Compounds of the invention were tested for inhibition of the human ether a go-go related gene (hERG) K^+ channel using IonWorks patch clamp electrophysiology. 8 Point concentration-response curves were generated on two occasions using 3-fold serial dilutions from the maximum assay concentration (11 uM). Electrophysiological recordings were made from a Chinese Hamster Lung cell line stably expressing the full length hERG channel. Single cell ion currents were measured in the perforated patch clamp configuration (100 ug/mL amphoterocin) at RT using an IonWorks Quattro instrument. The internal solution contained 140 mM KCl, 1 mM MgCl2, 1 mM EGTA and 20 mM HEPES and was buffered to pH 7.3. The external solution contained 138 mM NaCl, 2.7 mM KCl, 0.9 mM CaCl2, 0.5 mM MgCl2, 8 mM Na2HPO4 and 1.5 mM KH2PO4, and was buffered to pH 7.3. Cells were clamped at a holding potential of […] for 30 s and then stepped to +40 mV for 1 s. This was followed by a hyperpolarising step of 1 s to […] to evoke the hERG tail current. This sequence was repeated 5 times at a frequency of 0.25 Hz. Currents were measured from the tail step at the 5th pulse, and referenced to the holding current. Compounds were incubated for 6-7 min prior to a second measurement of the hERG signal using an identical pulse train. A minimum of 17 cells were required for each pIC50 curve fit. A control compound (quinidine) was used (see Table 13 below).

Assay [2] addresses T2, purified recombinantly expressed human SSAO (Homo sapiens, UniProt Q16853).
T2 construct: made in house
T2 sequence (Q16853 1-763): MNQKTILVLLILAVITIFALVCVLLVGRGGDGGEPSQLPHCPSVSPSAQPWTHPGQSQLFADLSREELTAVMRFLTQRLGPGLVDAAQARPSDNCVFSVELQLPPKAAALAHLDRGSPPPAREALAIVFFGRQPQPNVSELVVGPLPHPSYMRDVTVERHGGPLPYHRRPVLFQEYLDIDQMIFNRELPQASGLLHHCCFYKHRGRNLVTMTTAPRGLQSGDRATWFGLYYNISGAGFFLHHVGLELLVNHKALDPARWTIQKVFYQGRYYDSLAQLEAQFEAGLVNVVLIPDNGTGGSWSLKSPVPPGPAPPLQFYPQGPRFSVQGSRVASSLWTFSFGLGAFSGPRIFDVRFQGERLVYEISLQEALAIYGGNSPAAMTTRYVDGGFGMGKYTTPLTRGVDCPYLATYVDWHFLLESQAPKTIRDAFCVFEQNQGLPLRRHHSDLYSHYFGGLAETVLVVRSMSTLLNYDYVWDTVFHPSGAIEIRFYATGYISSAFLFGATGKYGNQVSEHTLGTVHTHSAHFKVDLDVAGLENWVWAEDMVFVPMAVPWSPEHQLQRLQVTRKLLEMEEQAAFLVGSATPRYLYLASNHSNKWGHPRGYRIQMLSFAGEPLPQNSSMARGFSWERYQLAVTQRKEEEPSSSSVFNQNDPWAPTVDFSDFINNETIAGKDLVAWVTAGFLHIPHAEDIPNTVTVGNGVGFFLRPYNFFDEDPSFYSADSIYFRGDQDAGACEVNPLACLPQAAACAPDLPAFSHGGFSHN
The experiment in a line: SSAO enzyme inhibition assay (benzylamine substrate; hydrogen peroxide/HRP-coupled or 14C-aldehyde detection). The assay is classed as biochemical. As to conditions: SSAO inhibitory activity; recombinant human SSAO, RT. Here is the method:
All primary assays were performed at RT. with purified recombinantly expressed human SSAO. Enzyme was prepared essentially as described in Öhman et al. (Protein Expression and Purification 46 (2006) 321-331). In addition, secondary- and selectivity assays were performed using SSAO prepared from various tissues or purified rat recombinant SSAO. The enzyme activity was assayed with benzylamine as substrate by measuring either benzaldehyde production, using ^14C-labeled substrate, or by utilizing the production of hydrogen peroxide in a horseradish peroxidase (HRP) coupled reaction. Briefly, test compounds were dissolved in dimethyl sulfoxide (DMSO) to a concentration of 10 mM. Dose-response measurements were assayed by either creating 1:10 serial dilutions in DMSO to produce a 7 point curve or by making 1:3 serial dilutions in DMSO to produce 11 point curves. The top concentrations were adjusted depending on the potency of the compounds and subsequent dilution in reaction buffer yielded a final DMSO concentration ≤2%.
In a horseradish peroxidase (HRP) coupled reaction, hydrogen peroxide oxidation of 10-acetyl-3,7-dihydroxyphenoxazine produced resorufin, which is a highly fluorescent compound (Zhout and Panchuk-Voloshina. Analytical Biochemistry 253 (1997) 169-174; Amplex® Red Hydrogen Peroxide/peroxidase Assay kit, Invitrogen A22188). Enzyme and compounds in 50 mM sodium phosphate, pH 7.4 were set to pre-incubate in flat-bottomed microtiter plates for approximately 15 min before initiating the reaction by addition of a mixture of HRP, benzylamine and Amplex reagent. Benzylamine concentration was fixed at a concentration corresponding to the Michaelis constant, determined using standard procedures. Fluorescence intensity was then measured at several time points during 1-2 h, exciting at 544 nm and reading the emission at 590 nm. For the human SSAO assay final concentrations of the reagents in the assay wells were: SSAO enzyme 1 ug/mL, benzylamine 100 uM, Amplex reagent 20 uM, HRP 0.1 U/mL and varying concentrations of test compound. The inhibition was measured as % decrease of the signal compared to a control without inhibitor (only diluted DMSO). The background signal from a sample containing no SSAO enzyme was subtracted from all data points. Data was fitted to a four parameter logistic model and IC50 values were calculated using the GraphPad Prism 4 or XLfit 4 programs.
SSAO activity was assayed using […] benzylamine and analysed by measuring radioactive benzaldehyde. In a white 96-well optiplate (Packard), 20 uL of diluted test compound was pre-incubated at RT with 20 uL SSAO enzyme for approximately 15 min with continuous agitation. All dilutions were made with PBS. The reaction was initiated by adding 20 uL of the benzylamine substrate solution containing Benzylamine hydrochloride (CFA589, GE Healthcare). The plate was incubated for 1 h as above after which the reaction was stopped by acidification (10 uL 1M aq HCl). Then 90 uL Micro Scint-E solution (Perkin-Elmer) was added to each well and the plate was continuously mixed for 15 min. Phase separation occurred instantly and activity was read in a Topcount scintillation counter (Perkin-Elmer). In the final reaction well, the human recombinant SSAO concentration was 10 ug/mL. In order to optimize sensitivity, the substrate concentration was decreased as compared to the HRP coupled assay in order to get a higher fraction of radioactive product. In the human SSAO assay, benzylamine concentration was 40 uM (0.2uCi/mL). Data was analysed as above.

T1 sequence (Q12809 whole entry): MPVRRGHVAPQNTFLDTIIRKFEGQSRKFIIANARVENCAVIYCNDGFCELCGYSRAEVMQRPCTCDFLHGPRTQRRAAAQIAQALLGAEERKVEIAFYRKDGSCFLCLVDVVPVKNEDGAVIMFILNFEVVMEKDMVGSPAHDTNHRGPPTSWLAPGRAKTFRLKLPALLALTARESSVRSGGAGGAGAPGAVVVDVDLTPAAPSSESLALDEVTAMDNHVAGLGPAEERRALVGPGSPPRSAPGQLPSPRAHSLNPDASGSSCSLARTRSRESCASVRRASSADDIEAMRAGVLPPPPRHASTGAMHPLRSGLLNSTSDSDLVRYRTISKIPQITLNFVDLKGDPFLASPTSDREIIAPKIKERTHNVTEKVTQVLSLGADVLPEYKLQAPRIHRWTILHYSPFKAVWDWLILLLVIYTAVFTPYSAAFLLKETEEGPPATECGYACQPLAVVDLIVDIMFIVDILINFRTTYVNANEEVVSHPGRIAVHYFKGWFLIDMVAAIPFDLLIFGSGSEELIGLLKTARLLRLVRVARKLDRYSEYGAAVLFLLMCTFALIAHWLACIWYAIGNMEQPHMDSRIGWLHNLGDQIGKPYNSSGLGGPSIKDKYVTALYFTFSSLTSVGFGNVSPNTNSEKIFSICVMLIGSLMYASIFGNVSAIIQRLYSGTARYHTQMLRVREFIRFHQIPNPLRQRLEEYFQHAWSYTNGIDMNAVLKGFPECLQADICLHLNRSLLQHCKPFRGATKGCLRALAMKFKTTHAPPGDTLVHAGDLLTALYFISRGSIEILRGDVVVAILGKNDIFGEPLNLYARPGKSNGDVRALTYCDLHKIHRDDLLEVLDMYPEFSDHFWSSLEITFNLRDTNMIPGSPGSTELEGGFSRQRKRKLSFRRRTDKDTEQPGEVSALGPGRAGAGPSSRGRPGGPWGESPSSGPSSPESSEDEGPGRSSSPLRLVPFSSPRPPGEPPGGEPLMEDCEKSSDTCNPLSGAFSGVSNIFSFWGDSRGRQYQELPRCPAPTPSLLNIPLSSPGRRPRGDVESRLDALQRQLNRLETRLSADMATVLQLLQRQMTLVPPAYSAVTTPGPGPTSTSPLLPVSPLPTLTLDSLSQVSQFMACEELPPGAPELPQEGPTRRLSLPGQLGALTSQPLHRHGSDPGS

Consider `Cc1ccc(-n2c(-c3ccc(NC4CCOCC4)nc3)nc3ccncc32)cc1` [Compound 10, 5-[3-(4-Methylphenyl)-3H-imidazo[4,5-c]pyridin-2-yl]-N-(oxan-4-yl)pyridin-2-amine], for which the IC50 in assay [1] was greater than 10 µM; in assay [2], less than 0.05 µM.

As for `Cc1cc(N2CCOCC2)ncc1-c1nc2ccncc2n1-c1ccc(Cl)cn1` [Compound 12, 4-{5-[3-(5-Chloropyridin-2-yl)-3H-imidazo[4,5-c]pyridin-2-yl]-4-methylpyridin-2-yl}morpholine], the IC50 is greater than 10 µM in assay [1] and less than 0.05 µM in assay [2].

Take `Fc1ccc(-n2c(-c3ccc(NC4CCOCC4)nc3)nc3ccncc32)cc1` [Compound 15, 5-[3-(4-Fluorophenyl)-3H-imidazo[4,5-c]pyridin-2-yl]-N-(oxan-4-yl)pyridin-2-amine]: the IC50 is greater than 10 µM in assay [1] and less than 0.05 µM in assay [2].

For the compound `Cc1ccc(-n2c(-c3ccc(NC4CC4)nc3)nc3ccncc32)cc1` [Compound 17, N-Cyclopropyl-5-[3-(4-methylphenyl)-3H-imidazo[4,5-c]pyridin-2-yl]pyridin-2-amine], the IC50 is greater than 10 µM in assay [1] and less than 0.05 µM in assay [2].

For `Cc1ccc(-n2c(-c3ccc(N4CCCC4)nc3)nc3ccncc32)cn1` [Compound 18, 5-[3-(6-Methylpyridin-3-yl)-3H-imidazo[4,5-c]pyridin-2-yl]-2-(pyrrolidin-1-yl)pyridine], the IC50 in assay [1] was greater than 10 µM; in assay [2], less than 0.05 µM.

`Cc1ccc(-n2c(-c3ccc(N4CCC(F)CC4)nc3)nc3ccncc32)cn1` [Compound 19, 2-(4-Fluoropiperidin-1-yl)-5-[3-(6-methylpyridin-3-yl)-3H-imidazo[4,5-c]pyridin-2-yl]pyridine]: the values for the IC50 in assay [1] and in assay [2] were greater than 10 µM and less than 0.05 µM, respectively.

Turning to `Cc1ccc(-n2c(-c3ccc(NCCN4CCOCC4)nc3)nc3ccncc32)cc1` [Compound 21, 5-[3-(4-Methylphenyl)-3H-imidazo[4,5-c]pyridin-2-yl]-N-[2-(morpholin-4-yl)ethyl]pyridin-2-amine], the figures for the IC50 in assay [1] and in assay [2] were greater than 10 µM and less than 0.05 µM, respectively.

`Cc1ccc(-n2c(-c3ccc(N4CCCC4)c(F)c3)nc3ccncc32)cn1` [Compound 34, 5-{2-[3-Fluoro-4-(pyrrolidin-1-yl)phenyl]-3H-imidazo[4,5-c]pyridin-3-yl}-2-methylpyridine]: in assay [2], the IC50 lay within 0.05 to 0.2 µM.

As to `Cc1ccc(-n2c(-c3ccc(NC4CCOCC4)cc3)nc3ccncc32)cn1` [Compound 35, N-{4-[3-(6-Methylpyridin-3-yl)-3H-imidazo[4,5-c]pyridin-2-yl]phenyl}oxan-4-amine], the IC50 in assay [2] was in the range of 0.2 to 1.2 µM.

As to `Cc1ccc(-n2c(-c3ccc(N4CCCC4)cc3)nc3ccncc32)nc1` [Compound 36, 5-Methyl-2-{2-[4-(pyrrolidin-1-yl)phenyl]-3H-imidazo[4,5-c]pyridin-3-yl}pyridine], the IC50 in assay [2] lay in the range of 0.05 to 0.2 µM.

Turning to `Cc1ccc(-n2c(-c3ccc(N4CCC(F)CC4)cc3)nc3ccncc32)cn1` [Compound 37, 5-{2-[4-(4-Fluoropiperidin-1-yl)phenyl]-3H-imidazo[4,5-c]pyridin-3-yl}-2-methylpyridine], the IC50 in assay [2] lay within 0.05 to 0.2 µM.

For `Clc1ccc(-n2c(-c3ccc(Cl)nc3)nc3ccncc32)cc1` [Compound 38, 2-Chloro-5-[3-(4-chlorophenyl)-3H-imidazo[4,5-c]pyridin-2-yl]pyridine], the IC50 in assay [2] lay within 0.2 to 1.2 µM.

On to `Fc1ccc(-n2c(-c3ccc(Cl)nc3)nc3ccncc32)cc1` [Compound 39, 2-Chloro-5-[3-(4-fluorophenyl)-3H-imidazo[4,5-c]pyridin-2-yl]pyridine], for which, in assay [2], the IC50 was 0.2 to 1.2 µM.
